Consider twelve molecules from patent US20240368194A1, “IRAK4 DEGRADATION AGENT, AND PREPARATION METHOD THEREFOR AND USE THEREOF” (SHANGHAI LEADINGTAC PHARMACEUTICAL CO. LTD., priority 2021, published 2024).

Assay [1] concerns the target IRAK4 kinase (Homo sapiens (Human), UniProt Q9NWZ3). Kind of assay: IRAK4 kinase activity test (KinEASE-STK S1 HTRF kit). In kind it is biochemical. Particulars: 2.5 nM IRAK4 kinase, 7 μM ATP, 37° C. 120 min. The method, then:
Then 2.5 nM 1RAK4 kinase (Carna), 1 μM biotinylated polypeptide substrate (Cisbio) and 7 μM adenosine triphosphate (Sigma-Aldrich) were sequentially added, and the mixtures were incubated at 37° C. for 120 min. Subsequently, an anti-phosphoserine/threonine antibody (Cisbio) conjugated with a europium element compound and conjugated modified XL665 streptavidin (Cisbio) were added to the reaction systems to stop the reactions. After 1 h of incubation at room temperature, the fluorescence intensity of each well was measured at the excitation wavelength of 337 nm and the emission wavelengths of 620 nm and 665 nm with a microplate reader EnVision (PerkinElmer) in the HTRF mode, and Ratio values were calculated using the formula Ratio=(665 nm/620 nm)×[…]. The inhibition rate of the compound at each concentration was calculated by comparing the fluorescence intensity ratio with that of the control group. Then a non-linear curve fitting of logarithmic concentration-inhibition rate was performed using GraphPad Prism 7, and the IC50 value of the compound was obtained.
On the technique in general: In TR-FRET formats the signal depends on donor and acceptor labels being close together.

Assay [2] addresses IRAK4 protein in THP-1 cells (Homo sapiens (Human), UniProt Q9NWZ3). Kind of assay: Degradation of IRAK4 in THP-1 cells, human IRAK4 AlphaLISA assay. In kind it is cell-based. Conditions: 24 h incubation. As for the experimental part: THP-1 cells (Stem Cell Bank, Chinese Academy of Sciences) were inoculated onto a 24-well cell culture plate at 0.95 mL/well, with a cell density of 5×10^5 cells/well. The cell plate was incubated overnight in a 37° C., 5% carbon dioxide incubator, and 50 μL of a solution of a compound in dimethyl sulfoxide was added, such that the final concentration of the compound fell within the range of 0.03-3000 nM. After another 24 h of incubation, cells were collected into 1.5 mL centrifuge tubes and centrifuged at 1000 rpm at 4° C. for 5 min. The cell pellets were washed twice with 1×DPBS. The resuspended cells were lysed with 200 μL of lysis buffer (Western and IP cell lysis buffer (Beyotime), supplemented with 1 mM phenylmethylsulfonyl fluoride and protease inhibitor cocktail (Beyotime)), left to stand on ice for 30 mini, and then centrifuged at 14,000 g at 4° C. for 10 min. The supernatant samples were assayed by Western Blot for IRAK4 protein levels.
The above cell lysates were also tested for IRAK4 degradation using a human IRAK4 AlphaLISA assay kit (PerkinElmer, AL3117C). The method is specifically as follows: 2-μL test samples of cell lysate supernatant were transferred to a white 384-well plate (PerkinElmer, 6007299), and 4 μL of 5× anti-IRAK4 receptor beads (PerkinElmer, final concentration of 10 μg/mL) was then added. The plate was incubated at 23° C. for 30 min. Then 4 μL of 5× biotin-labeled anti-IRAK4 antibody (PerkinElmer, final concentration of 1 nM) was added, and the plate was incubated at 23° C. for 60 min. Finally, 10 μL of 2′ streptavidin-labeled donor beads (final concentration of 40 μg/mL) was added to each well, and the plate was incubated in the dark at 23° C. for 30 min. After the incubation was complete, AlphaLISA signal values were measured on a microplate reader EnVision (PerkinElmer, 2105) in the AlphaScreen standard mode, and IRAK4 concentrations were calculated from these signal values. Then a non-linear curve fitting of logarithmic concentration-inhibition rate was performed using GraphPad Prism 7, and the DC50 and Dmax values of the compound were obtained.
A general note: Alpha assays give light when donor and acceptor beads are brought close together.

pIC50: −log10 of the molar value.

IRAK4 kinase, sequence (Q9NWZ3 whole entry): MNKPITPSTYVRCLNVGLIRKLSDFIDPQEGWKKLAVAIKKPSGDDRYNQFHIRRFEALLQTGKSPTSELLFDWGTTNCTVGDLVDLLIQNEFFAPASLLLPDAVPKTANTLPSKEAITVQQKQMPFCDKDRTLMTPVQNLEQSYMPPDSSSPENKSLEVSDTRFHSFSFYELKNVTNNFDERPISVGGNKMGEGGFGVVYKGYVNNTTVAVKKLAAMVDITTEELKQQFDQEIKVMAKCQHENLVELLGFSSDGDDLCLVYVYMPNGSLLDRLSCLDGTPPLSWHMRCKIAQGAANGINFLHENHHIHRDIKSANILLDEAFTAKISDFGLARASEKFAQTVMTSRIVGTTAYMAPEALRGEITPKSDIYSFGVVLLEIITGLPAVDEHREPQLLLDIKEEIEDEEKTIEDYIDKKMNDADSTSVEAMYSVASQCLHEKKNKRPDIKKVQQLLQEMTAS
IRAK4 protein in THP-1 cells, sequence (Q9NWZ3 whole entry): as above

`Cc1ccc(C(=O)N2CCC3(CCC(CN4CCC(n5cc(NC(=O)c6cnn7ccc(N8CCC[C@H](O)C8)nc67)c(C(F)F)n5)CC4)CC3)CC2)cc1N1CCC(=O)NC1=O` [Example 56, (S)-N-(3-(difluoromethyl)-1-(1-((3-(3-(2,4-dioxotetrahydropyrimidin-1(2H)-yl)-4-methylbenzoyl)-3-azaspiro[5.5]undecan-9-yl)methyl)piperidin-4-yl)-1H-pyrazol-4-yl)-5-(3-hydroxypiperidin-1-yl)pyrazolo[1,5-a]pyrimidine-3-carboxamide] gave a negative logarithm of the IC50 (pIC50) in assay [1] of 8.41. In assay [2], this molecule displayed a DC50 of 0.41 nM and a Dmax of 96.4%.
The molecule `Cc1ccc(C(=O)N2CCC3(CCC(CN4CCC(n5cc(NC(=O)c6cnn7ccc(N8C[C@H]9C[C@@H]8CO9)nc67)c(C(F)F)n5)CC4)CC3)CC2)cc1N1CCC(=O)NC1=O` [Example 44, 5-((1R,4R)-2-oxa-5-azabicyclo[2.2.1]heptan-5-yl)-N-(3-(difluoromethyl)-1-(1-((3-(3-(2,4-dioxotetrahydropyrimidin-1(2H)-yl)-4-methylbenzoyl)-3-azaspiro[5.5]undecan-9-yl)methyl)piperidin-4-yl)-1H-pyrazol-4-yl)pyrazolo[1,5-a]pyrimidine-3-carboxamide] gave a pIC50 in assay [1] of 7.87. In assay [2], this molecule registered a half-maximal degradation concentration (DC50) of 6.3 nM and a Dmax of 80.5%.
For `O=C1CCN(c2cc(C(=O)N3CCC4(CCC(CN5CCC(n6cc(NC(=O)c7cnn8ccc(N9CCNCC9)nc78)c(C(F)F)n6)CC5)CC4)CC3)ccc2Cl)C(=O)N1` [Example 19, N-(1-(1-((3-(4-chloro-3-(2,4-dioxotetrahydropyrimidin-1(2H)-yl)benzoyl)-3-azaspiro[5.5]undecan-9-yl)methyl)piperidin-4-yl)-3-(difluoromethyl)-1H-pyrazol-4-yl)-5-(piperazin-1-yl)pyrazolo[1,5-a]pyrimidine-3-carboxamide], in that order: 8.42, 5.1 nM and 97.7%.
In the same order, the values of `Cc1ccc(C(=O)N2CCC3(CCC(CN4CCC(n5cc(NC(=O)c6cnn7ccc(N8CC9(COC9)C8)nc67)c(C(F)F)n5)CC4)CC3)CC2)cc1N1CCC(=O)NC1=O` [Example 50, N-(3-(difluoromethyl)-1-(1-((3-(3-(2,4-dioxotetrahydropyrimidin-1(2H)-yl)-4-methylbenzoyl)-3-azaspiro[5.5]undecan-9-yl)methyl)piperidin-4-yl)-1H-pyrazol-4-yl)-5-(2-oxa-6-azaspiro[3.3]heptan-6-yl)pyrazolo[1,5-a]pyrimidine-3-carboxamide] are 7.43, 5.94 nM and 82.1%.
For `O=C1CCN(c2cc(C(=O)N3CCC(COCCN4CCC(n5cc(NC(=O)c6cnn7ccc(N8C[C@H]9C[C@@H]8CO9)nc67)c(C(F)F)n5)CC4)CC3)ccc2Cl)C(=O)N1` [Example 18, 5-((1R,4R)-2-oxa-5-azabicyclo[2.2.1]heptan-5-yl)-N-(1-(1-(2-((1-(4-chloro-3-(2,4-dioxotetrahydropyrimidin-1(2H)-yl)benzoyl)piperidin-4-yl)methoxy)ethyl)piperidin-4-yl)-3-(difluoromethyl)-1H-pyrazol-4-yl)pyrazolo[1,5-a]pyrimidine-3-carboxamide], in that order: 7.17, 54.3 nM and 62.5%.
The molecule `O=C1CCN(c2cc(C(=O)N3CCC4(CCC(CN5CCC(n6cc(NC(=O)c7cnn8ccc(N9CCOCC9)nc78)c(C(F)F)n6)CC5)CC4)CC3)ccc2C(F)(F)F)C(=O)N1` [Example 25, N-(3-(difluoromethyl)-1-(1-((3-(3-(2,4-dioxotetrahydropyrimidin-1(2H)-yl)-4-(trifluoromethyl)benzoyl)-3-azaspiro[5.5]undecan-9-yl)methyl)piperidin-4-yl)-1H-pyrazol-4-yl)-5-morpholinopyrazolo[1,5-a]pyrimidine-3-carboxamide] had a negative logarithm of the IC50 (pIC50) in assay [1] of 7.85. In assay [2], this molecule displayed a half-maximal degradation concentration (DC50) of 62.1 nM and a maximal degradation (Dmax) of 97.8%.
For `Cc1ccc(C(=O)N2CCC3(CCC(CN4CCC(n5cc(NC(=O)c6cnn7ccc(N8CCC[C@H](N)C8)nc67)c(C(F)F)n5)CC4)CC3)CC2)cc1N1CCC(=O)NC1=O` [Example 49, (S)-5-(3-aminopiperidin-1-yl)-N-(3-(difluoromethyl)-1-(1-((3-(3-(2,4-dioxotetrahydropyrimidin-1(2H)-yl)-4-methylbenzoyl)-3-azaspiro[5.5]undecan-9-yl)methyl)piperidin-4-yl)-1H-pyrazol-4-yl)pyrazolo[1,5-a]pyrimidine-3-carboxamide], in that order: 8.15, 3.22 nM and 97.1%.
In the same order, the values of `Cc1ccc(C(=O)N2CCC3(CCC(CN4CCC(n5cc(NC(=O)c6cnn7ccc(N8CCS(=O)(=O)CC8)nc67)c(C(F)F)n5)CC4)CC3)CC2)cc1N1CCC(=O)NC1=O` [Example 55, N-(3-(difluoromethyl)-1-(1-((3-(3-(2,4-dioxotetrahydropyrimidin-1(2H)-yl)-4-methylbenzoyl)-3-azaspiro[5.5]undecan-9-yl)methyl)piperidin-4-yl)-1H-pyrazol-4-yl)-5-(1,1-dioxothiomorpholinyl)pyrazolo[1,5-a]pyrimidine-3-carboxamide] are 7.67, 7.52 nM and 79.2%.
In the same order, the values of `O=C1CCN(c2cc(C(=O)N3CCC4(CCC(CCN5CCC(n6cc(NC(=O)c7cnn8ccc(N9CCOCC9)nc78)c(C(F)F)n6)CC5)CC4)CC3)ccc2Cl)C(=O)N1` [Example 42, N-(1-(1-(2-(3-(4-chloro-3-(2,4-dioxotetrahydropyrimidin-1(2H)-yl)benzoyl)-3-azaspiro[5.5]undecan-9-yl)ethyl)piperidin-4-yl)-3-(difluoromethyl)-1H-pyrazol-4-yl)-5-morpholinopyrazolo[1,5-a]pyrimidine-3-carboxamide] are 7.73, 3.66 nM and 91.7%.
In assay [1], `O=C1CCN(c2cc(C(=O)N3CCC(CCOC[C@H]4CC[C@@H](n5cc(NC(=O)c6cnn7ccc(N8C[C@H]9C[C@@H]8CO9)nc67)c(C(F)F)n5)CC4)CC3)ccc2Cl)C(=O)N1` [Example 9, 5-((1R,4R)-2-oxa-5-azabicyclo[2.2.1]heptan-5-yl)-N-(1-((1R,4R)-4-((2-(1-(4-chloro-3-(2,4-dioxotetrahydropyrimidin-1(2H)-yl)benzoyl)piperidin-4-yl)ethoxy)methyl)cyclohexyl)-3-(difluoromethyl)-1H-pyrazol-4-yl)pyrazolo[1,5-a]pyrimidine-3-carboxamide] gave a negative logarithm of the IC50 (pIC50) of 6.88. For the same molecule, in assay [2], the 50% degradation concentration (DC50) is 129 nM and the “Dmax (%)” value is listed as 81.0%.
For the molecule `COc1ccc(C(=O)N2CCC3(CCC(CCN4CCC(n5cc(NC(=O)c6cnn7ccc(N8CCOCC8)nc67)c(C(F)F)n5)CC4)CC3)CC2)cc1N1CCC(=O)NC1=O` [Example 28, N-(3-(difluoromethyl)-1-(1-(2-(3-(3-(2,4-dioxotetrahydropyrimidin-1(2H)-yl)-4-methoxybenzoyl)-3-azaspiro[5.5]undecan-9-yl)ethyl)piperidin-4-yl)-1H-pyrazol-4-yl)-5-morpholinopyrazolo[1,5-a]pyrimidine-3-carboxamide], the pIC50 in assay [1] is 7.89. In assay [2], this molecule registered a DC50 of 3.18 nM and a Dmax of 89.4%.
For `CN(CCN1CCC(n2cc(NC(=O)c3cnn4ccc(N5C[C@H]6C[C@@H]5CO6)nc34)c(C(F)F)n2)CC1)CC1CCN(C(=O)c2ccc(Cl)c(N3CCC(=O)NC3=O)c2)CC1` [Example 20, 5-((1R,4R)-2-oxa-5-azabicyclo[2.2.1]heptan-5-yl)-N-(1-(1-(2-(((1-(4-chloro-3-(2,4-dioxotetrahydropyrimidin-1(2H)-yl)benzoyl)piperidin-4-yl)methyl)(methyl)amino)ethyl)piperidin-4-yl)-3-(difluoromethyl)-1H-pyrazol-4-yl)pyrazolo[1,5-a]pyrimidine-3-carboxamide], in that order: 7.05, 78.6 nM and 87%.

Usually pIC50 stands for the IC50 on a negative log10 scale, so that one unit is a factor of ten. Read a high pIC50 as a small IC50. As a reminder, the DC50 is the concentration giving 50% degradation. Read a low DC50 as degradation at low concentration. For orientation: Dmax means the largest share of the target that was removed. Higher therefore signals a fuller loss of target.
